Data published in PMC11796369, “Genetic and biochemical characterization of a radical SAM enzyme required for post-translational glutamine methylation of methyl-coenzyme M reductase” (mBio, 2025).

Molecular target: T1, MmMgmA (Methanothermobacter marburgensis, UniProt D9PY35)
T1 construct: gene MTBMA_c15540; full-length; E. coli BL21(DE3) from codon-optimised gene in pET28a, reconstituted with 4Fe-4S and cobalamin (structure, kinetics); also TAP-tagged from M. acetivorans (native cobamide, peptide assay)
T1 sequence (D9PY35 1-430): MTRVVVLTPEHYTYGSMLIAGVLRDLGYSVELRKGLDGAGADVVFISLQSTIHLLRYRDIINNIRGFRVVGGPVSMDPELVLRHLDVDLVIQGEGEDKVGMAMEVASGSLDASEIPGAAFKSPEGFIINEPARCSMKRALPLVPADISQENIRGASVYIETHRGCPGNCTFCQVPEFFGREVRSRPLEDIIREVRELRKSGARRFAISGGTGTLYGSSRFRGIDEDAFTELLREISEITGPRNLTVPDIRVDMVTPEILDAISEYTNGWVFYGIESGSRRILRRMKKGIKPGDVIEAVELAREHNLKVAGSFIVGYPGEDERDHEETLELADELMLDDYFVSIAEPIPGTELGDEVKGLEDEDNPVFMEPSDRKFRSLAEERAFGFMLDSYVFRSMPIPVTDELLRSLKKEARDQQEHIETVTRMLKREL
Test: UHPLC-MS of […]'-dAH and SAH
Type: biochemical
Settings: reconstituted enzyme; 500 µM SAM, 200 µM McrA peptide, 2 mM Ti citrate, 250 mM KCl, 50 mM HEPES pH 7.5

Structure (SMILES): C[S+](CC[C@H](N)C(=O)O)C[C@H]1O[C@@H](n2cnc3c(N)ncnc32)[C@H](O)[C@@H]1O (stereo partly shown) [SAM]
- UHPLC-MS of 5'-dAH and SAH: The reconstituted enzyme was highly active
